Reference: patent US8865748B2, “Compounds and compositions for stabilizing hypoxia inducible factor-2 alpha as a method for treating cancer” (Akebia Therapeutics Inc., priority 2011, dated 2014)

Tests used:
[1] = system: B16F10 melanoma tumors; assay: Murine melanoma tumor model (B16F10 in C57BL/6 mice); format: in vivo
Experimental: Mice were injected with 1×10^5 B16F10 murine melanoma cells murine subcutaneously on the left flank. Once tumors become palpable (approximately 5 days), mice were randomly allocated to receive treatment with either: 20% polyethylene glycol (PEG) in 5% […] (vehicle control for the disclosed HIF-2α stabilizer) and PBS (vehicle control for GM-CSF), 20% PEG and GM-CSF (100 ng per mouse in a 50 μL volume), the disclosed HIF-2α stabilizer (17.5 mg/kg in a 100 μL volume) and PBS, or the disclosed HIF-2α stabilizer and GM-CSF (same doses). The PBS and GM-CSF were administered intratumorally, while the 20% PEG and the disclosed HIF-2α stabilizer were administered intraperitoneally. Mice were treated 3 times per week until tumors reached a size of 20 mm in any dimension (approximately 2.5 weeks), at which point mice were euthanized, in accordance with institutional policy. Tumor diameters were measured 3 times per week with calipers, and tumor volumes were calculated as follows: Tumor volume=0.5×[(large diameter)×(small diameter)^2].
6-8-week-old C57BL/6 mice were injected with 1×10^5 B16F10 murine melanoma cells murine subcutaneously on the left flank. Once tumors become palpable (approximately 5 days), mice were randomly allocated to receive treatment with either: 20% PEG-400 in 5% sucrose (vehicle for disclosed HIF-2α stabilizer) and PBS (vehicle for GM-CSF), 20% PEG-400 and GM-CSF (100 ng per mouse in a 50 μL volume), disclosed HIF-2α stabilizer (17.5 mg/kg mouse weight in a 100 μL volume) and PBS, or the disclosed HIF-2α stabilizer and GM-CSF (same concentrations). The disclosed HIF-2α stabilizer (or the vehicle control) was administered intraperitoneally, while GM-CSF (or the vehicle control) was administered intratumorally. Mice were treated […] 3 times per week until tumors reached a size of 20 mm in any dimension (approximately 2.5 weeks), at which point mice were be euthanized, in accordance with institutional policy. Tumor diameters were measured 3 times per week with calipers, and tumor volumes will be calculated as follows: Tumor volume=0.5×[(large diameter)×(small diameter)^2]. For experiments analyzing the effect of neutralizing sVEGFR-1 in combination with disclosed HIF-2α stabilizer treatment, mice were treated intraperitoneally 3×/week with either disclosed HIF-2α stabilizer or vehicle control, and intratumorally with either 4 μg anti-VEGFR-1 neutralizing antibody (R&D Systems) or 4 μg polyclonal goat IgG isotype control (Santa Cruz Biotechnology) in a 50 μL volume. All protocols were approved by the Ohio State University Animal Care and Use Committee, and mice were treated in accordance with institutional guidelines for animal care.
The ANOVA test was used to compare independent measurements between multiple treatment groups. The data was log-transformed to normalize the variance across groups. P-values were adjusted using the Holm's procedure to conserve the type I error at 0.05 due to the multiple comparisons. For tumor growth data, changes in tumor volume over time were assessed via a longitudinal model. Tumor values were log-transformed, and estimated slopes (changes in tumor volume over time) were calculated with 95% confidence intervals. Estimated differences in tumor volume were calculated by a random-effects regression of the longitudinal data. For all analyses, p≦0.05 was considered statistically significant.
To confirm that the modulation of tumor growth and angiogenesis was due to sVEGFR-1 production in response to the disclosed HIF-2α stabilizer, mice were treated with the disclosed HIF-2α stabilizer in the presence or absence of an sVEGFR-1 neutralizing Ab.
6-8-week-old C57BL/6 mice or SCID mice were injected with 1×10^5 B16F10 murine melanoma cells or 1×10^6 A375 human melanoma cells, respectively, subcutaneously on the left flank. […]

[2] = system: sVEGFR-1; assay: sVEGFR-1 production by human peripheral blood monocytes (ELISA, real-time PCR); format: cell-based; details: GM-CSF stimulation; FIG. 11D
Experimental: (§1) Human peripheral blood mononuclear cells (PBMCs) were isolated from fresh peripheral blood leukocyte source packs (American Red Cross, Columbus Ohio) by density gradient centrifugation over Lymphocyte Separation Medium (Cellgro). Monocytes were purified from total PBMCs by layering over FBS. Monocytes were cultured in endotoxin-free RPMI-1640 supplemented with 1% fetal bovine serum (FBS), 0.1% human serum albumin (HSA), and 10 μg/mL of the endotoxin inhibitor polymyxin B. In some experiments, freshly isolated monocytes were differentiated into macrophages by three-day culture in media containing 10% FBS, 1% PSA (penicillin G sodium, streptomycin sulfate, and amphotericin B), and 20 ng/mL M-CSF. Macrophages were serum-starved for 2 hours prior to stimulation. Monocytes or monocyte-derived macrophages were treated for 24 hours with 10 ng/mL GM-CSF, 10 μM disclosed HIF-2α stabilizer, or an equivalent volume of the vehicle controls (PBS or DMSO, respectively). Cell-free culture supernatants were harvested and analyzed for VEGF or sVEGFR-1 by ELISA (R&D Systems).
Human monocytes were left untreated or were stimulated with 100 ng/mL GM-CSF at normoxia or at 0.5% O2. At various time-points, cells were harvested in Trizol reagent (Invitrogen) and RNA was extracted in chloroform and then purified using the RNeasy Minikit (Qiagen). […] Data were analyzed according to the comparative threshold method and normalized against the β-actin internal control transcript. Results are semi-quantitative and represent the fold difference in transcript levels in a particular sample as compared with levels in untreated cells from the same donor.
Since monocyte production of VEGF was dependent on HIF-1α, the inventors herein determined whether selective stabilization of HIF-1α via inhibition of PHD2 would increase monocyte production of VEGF but not sVEGFR-1. […]

[3] = system: VEGF; assay: VEGF production by human peripheral blood monocytes (ELISA, real-time PCR); format: cell-based; details: FIG. 11C
Experimental: as §1
(§2) Human monocytes were left untreated or were stimulated with 100 ng/mL GM-CSF at normoxia or at 0.5% O2. At various time-points, cells were harvested in Trizol reagent (Invitrogen) and RNA was extracted in chloroform and then purified using the RNeasy Minikit (Qiagen). In murine studies, organs harvested at the time of euthanasia were flash-frozen in liquid nitrogen, pulverized in liquid nitrogen, and then dissolved in Trizol. cDNA was generated from 1 μg of RNA using the Superscript First Strand Synthesis System (Invitrogen) and used for real-time PCR using previously described primers and SYBR Green PCR Master Mix (Applied Biosciences), according to the manufacturer's instructions. Data were analyzed according to the comparative threshold method and normalized against the β-actin internal control transcript. Results are semi-quantitative and represent the fold difference in transcript levels in a particular sample as compared with levels in untreated cells from the same donor.
VEGF protein was undetectable in the supernatants of GM-CSF-stimulated monocytes, due to neutralization of VEGF by sVEGFR-1 (FIG. 11C).
Since monocyte production of VEGF was dependent on HIF-1α, the inventors herein determined whether selective stabilization of HIF-1α via inhibition of PHD2 would increase monocyte production of VEGF but not sVEGFR-1. In order to make such determination, human peripheral blood monocytes were stimulated with GM-CSF in the presence of a selective inhibitor of PHD2 which results in the stabilization of HIF-1α.

[4] = system: VEGF; assay: VEGF mRNA within B16F10 tumors (real-time PCR); format: in vivo, mice; details: FIG. 13B; p=0.490
Experimental: as §2
6-8-week-old C57BL/6 mice were injected with 1×10^5 B16F10 murine melanoma cells murine subcutaneously on the left flank. […] Tumor diameters were measured 3 times per week with calipers, and tumor volumes will be calculated as follows: Tumor volume=0.5×[(large diameter)×(small diameter)^2]. […]

GM-CSF: granulocyte-macrophage colony-stimulating factor
tumor growth (tumor volume) ([1]; FIG. 3, stabilizer 17 mg/kg I.P., GM-CSF 100 ng per mouse I.T., 3 times per week, vs. PBS control): reduction in tumor volume
tumor volume reduction, GM-CSF administered I.T. vs. I.P. ([1]; FIG. 4, stabilizer 17 mg/kg delivered I.P. in all cases, no control group): greater reduction of tumor volume
average tumor volumes vs. vehicle controls ([1]; day 16 of treatment, GM-CSF 100 ng/mouse intratumoral or stabilizer 17.5 mg/kg intraperitoneal, 3x/week, each p<0.001): significantly smaller
monocyte production of sVEGFR-1 [2]: induced
VEGF production, transcript levels by real-time PCR ([3]; GM-CSF stimulation): increased
VEGF protein in supernatants ([3]; GM-CSF-stimulated monocytes, ELISA detects free VEGF only): undetectable
levels of intratumoral VEGF over vehicle control-treated mice [4]: failed to increase
